Experimental data published in paper PMC11784099 (Journal of Virology, 2024).
Like-named read-outs stand apart in the source and are kept apart here.

Columns and labels:
in vitro = conditions: pig
[1] = test system: cGAS/STING signaling pathway; format: cell-based, pigs
[2] = test system: Pseudorabies virus (Ra strain); experiment: microbe, parasite or virus in culture; format: cell-based
cGAMP production = format: cell-based, pigs
[3] = test system: IRF3 phosphorylation (cGAS/STING signaling pathway); format: cell-based, pigs
p-IRF3 = format: cell-based, pigs
[4] = test system: JAK/STAT signaling pathway; format: cell-based, pigs
[5] = test system: JAK/STAT signaling pathway; format: cell-based, pigs; remark: listed apart in the source
IFN-β promoter = format: cell-based
[6] = test system: cGAS/STING signaling pathway; format: cell-based
PRV [7] = test system: PRV; parameters: species or system mice; conditions: mouse, in vivo
[8] = test system: type I interferon signaling pathway; parameters: species or system mice; conditions: mouse, in vivo
[9] = test system: type I interferon signaling pathway; parameters: species or system mice; conditions: mouse, in vivo; remark: listed apart in the source
IFN-β = test system: IFN-β; parameters: species or system mice; conditions: mouse, in vivo
PRV [10] = conditions: mouse, in vivo; cited from earlier work
[11] = Suid alphaherpesvirus 1, PK-15, 1 h

For COc1ccc([C@@H]2CC(=O)c3c(O)cc(O[C@@H]4O[C@H](CO[C@@H]5O[C@@H](C)[C@H](O)[C@@H](O)[C@H]5O)[C@@H](O)[C@H](O)[C@H]4O)cc3O2)cc1O [Hesperidin], the CC50 (PK-15 cells) was > 238 µM.
Work on O=c1c(O)c(-c2ccc(O)c(O)c2)oc2cc(O)cc(O)c12 [Quercetin] yielded a CC50 (PK-15 cells; pig) of 890 µM and a CC50 (in vitro) of 449 µM.
With O=c1c2cc(O)c(O)cc2oc2cc(O)c([C@@H]3O[C@H](CO)[C@@H](O)[C@H](O)[C@H]3O)c(O)c12 [Mangiferin] the CC50 (in vitro) was > 1050 µM.
For COc1ccc([C@@H]2CC(=O)c3c(O)cc(O[C@@H]4O[C@H](CO)[C@@H](O)[C@H](O)[C@H]4O[C@@H]4O[C@@H](C)[C@H](O)[C@@H](O)[C@H]4O)cc3O2)cc1O [Neohesperidin], the CC50 (PK-15 cells) was > 1000 µM.
With O=C(O)[C@H]1O[C@@H](Oc2cc3oc(-c4ccc(O)cc4)cc(=O)c3c(O)c2O)[C@H](O)[C@@H](O)[C@@H]1O [Scutellarin] the CC50 (in vitro) was > 213 µM.
In the case of O=C1C[C@@H](c2ccc(O)cc2)Oc2cc(O)cc(O)c21 [Naringenin], the “mRNA expression level of cGAS” value [1] is reported as “significantly enhance”, the “mRNA level of IRF3” value [1] is reported as “no discernible differences” and the “mRNA levels of IFN-β” value [1] is reported as “significantly elevate”.
For O=c1c(O)c(-c2cc(O)c(O)c(O)c2)oc2cc(O)cc(O)c12 [Myricetin], the IC50 [2, 11] was 42.7 µM, the “mRNA expression level of cGAS” value [1] was “significantly enhance” and the “mRNA level of IRF3” value [1] was “significantly increase”. For the same compound, the “mRNA level of STING” value [1] was “significantly increase”, the “mRNA levels of IFN-β” value [1] was “significantly elevate” and the “mRNA levels of cGAS, STING, TBK1, IRF3, IRF7 and IFN-β” value [1] was “all increased”. The “increase in cGAMP production compared with the blank group” value (cGAMP production) was ~1.5 fold, the “levels of p-IRF3 and p-IRF3/IRF3” value [3] was “significantly elevated” and the “total amount of IRF3 phosphorylation (fluorescence intensity)” value (p-IRF3) was “significant enhancement”. The “transcriptional levels of JAK1, STAT1, IRF9, ISG15, ISG56 and ISG54” value [4] was “notable elevation”, the “effect proteins ISG15 and OAS1” value [5] was “significantly increased” and the “protein levels of STAT1, p-STAT1 and p-STAT1/STAT1” value [5] was “significantly higher”. For the same compound, the “expression level of the IFN-β promoter, ratio to infected control group” value (IFN-β promoter) was ~2 fold, the “protein expressions of cGAS, STING, TBK1, IRF3 and p-IRF3” value [6] was “significantly increase” and the “mortality rate at 4 dpi” value (PRV [7]) was 70%. For the same compound, the “transcriptional levels of cGAS, STING, TBK1, IRF3, IRF7, IFN-β, ISG56 and ISG54 in heart, liver, spleen, lung and kidney” value [8] was “significantly higher”, the “expression levels of antiviral effectors MX1, OAS1 and ISG15 in brain and kidney” value [9] was “higher expression levels” and the “production of IFN-β in tissues (ELISA)” value (IFN-β) was “significantly promote”. For the same compound, the “mortality rate at 4 dpi” value (PRV [10]) was 0%, the “mortality rate at 5 dpi” value (PRV [10]) was 30% and the “reduction in viral copies in the kidney” value (PRV [10]) was “up to 80 fold”. For the same compound, the CC50 (in vitro) was > 1000 µM.
In the case of Oc1ccc(/C=C/c2cc(O)cc(O)c2)cc1 [resveratrol], the IC50 [2, 11] is reported as 23.2 to 323 µM.
With OC[C@H]1O[C@@H](Oc2cc(O)cc(/C=C/c3ccc(O)cc3)c2)[C@H](O)[C@@H](O)[C@@H]1O [Polydatin] the CC50 (in vitro) was > 466 µM.
For Pueraria, the CC50 (PK-15 cells) was > 461 µM.
With C[C@@H]1O[C@@H](OC[C@H]2O[C@@H](Oc3c(-c4ccc(O)c(O)c4)oc4cc(O)cc(O)c4c3=O)[C@H](O)[C@@H](O)[C@@H]2O)[C@H](O)[C@H](O)[C@H]1O [Rutin] the CC50 (in vitro) was > 389 µM.
In the case of O=c1cc(-c2ccc(O)c(O)c2)oc2cc(O)cc(O)c12 [Lutelin], the IC50 [2, 11] is reported as 36.9 µM, the “mRNA expression level of cGAS” value [1] is reported as “significantly enhance” and the “mRNA level of IRF3” value [1] is reported as “no discernible differences”. For the same compound, the “mRNA level of STING” value [1] was “significantly increase” and the CC50 (in vitro) was 195 µM.
Compound CC1(C)[C@@H](O[C@H]2O[C@H](C(=O)O)[C@@H](O)[C@H](O)[C@H]2O[C@@H]2O[C@H](C(=O)O)[C@@H](O)[C@H](O)[C@H]2O)CC[C@]2(C)[C@H]3C(=O)C=C4[C@@H]5C[C@@](C)(C(=O)O)CC[C@]5(C)CC[C@@]4(C)[C@]3(C)CC[C@@H]12 [glycyrrhizic acid] has an IC50 [2, 11] of 23.2 to 323 µM.
COc1ccc(-c2coc3cc(O)cc(O)c3c2=O)cc1 [Biochanin A] showed a CC50 (PK-15 cells) of 382 µM.
Compound O=C1c2c(O)cc(O)cc2O[C@H](c2cc(O)c(O)c(O)c2)[C@H]1O [Dihydromyricetin] has an IC50 [2, 11] of 161 µM and a CC50 (in vitro) of 914 µM.
Compound O=c1cc(-c2ccccc2)oc2cc(O)cc(O)c12 [Chrysin] has a CC50 (in vitro) of 107 µM.
COc1cc(C2Oc3cc([C@H]4Oc5cc(O)cc(O)c5C(=O)[C@@H]4O)ccc3OC2CO)ccc1O (some centres unmarked) [Silibinin] gave an IC50 [2, 11] of 203 µM and a CC50 (in vitro) of 392 µM.
In the case of COc1ccc(-c2coc3cc(O)ccc3c2=O)cc1 [Formononetin], the CC50 (in vitro) is reported as 228 µM.
In the case of O=c1c(O)c(-c2ccc(O)cc2)oc2cc(O)cc(O)c12 [Kaempferol], the IC50 [2, 11] is reported as 25.6 µM and the CC50 (in vitro) is reported as 255 µM.
With COc1ccc(-c2oc3c(CC=C(C)C)c(O[C@@H]4O[C@H](CO)[C@@H](O)[C@H](O)[C@H]4O)cc(O)c3c(=O)c2O[C@@H]2O[C@@H](C)[C@H](O)[C@@H](O)[C@H]2O)cc1 [Icariin] the CC50 (in vitro) was > 382 µM.
COc1cc2c(cc1OC)-c1cc3ccc(OC)c(OC)c3c[n+]1CC2 [Palmatine] gave a CC50 (PK-15 cells) of 1250 µM.
In the case of O=c1cc(-c2ccccc2)oc2cc(O)c(O)c(O)c12 [Baicalein], the IC50 ([2]; read-out: IC50) is reported as 291 µM, the “mRNA expression level of cGAS” value [1] is reported as “significantly enhance” and the “mRNA level of IRF3” value [1] is reported as “no discernible differences”. For the same compound, the “mRNA level of STING” value [1] was “significantly increase”, the “mRNA levels of IFN-β” value [1] was “significantly elevate” and the CC50 (PK-15 cells) was 563 µM.
O=C1C[C@@H](c2ccc(O)cc2)Oc2cc(O)ccc21 [Liquiritigenin] showed an IC50 ([2]; read-out: IC50) of 323 µM and a CC50 (PK-15 cells) of 790 µM.
In the case of O=c1c(O)c(-c2ccc(O)c(O)c2)oc2cc(O)ccc12 [Fisetin], the IC50 [2] is reported as “–^b” and the CC50 (in vitro) is reported as 717 µM.
